Values quoted from earlier work as cited in patent publication US20220347165A1, “EFFERVESCENT ORAL COMPOSITION” (NICOVENTURES TRADING LIMITED, priority 2021, published 2022).

Columns and labels:
[1] = when isolated; isomerizes to trans-bixin

solubility in water | solubility in fats and alcohols (fats and alcohols) | chemical stability [1] | Compound
water soluble |  |  | CC(/C=C/C=C(C)/C=C/C(=O)O)=C\C=C\C=C(C)\C=C\C=C(C)\C=C\C(=O)O (stereo in doubt) [norbixin, (2E,4E,6E,8E,10E,12E,14E,16E,18E)-4,8,13,17-tetramethylicosa-2,4,6,8,10,12,14,16,18-nonaenedioic acid]
insoluble in water | soluble in fats and alcohols | chemically unstable when isolated | COC(=O)/C=C/C(C)=C\C=C\C(C)=C\C=C\C=C(C)\C=C\C=C(C)\C=C\C(=O)O [bixin, (2E,4E,6E,8E,10E,12E,14E,16Z,18E)-20-methoxy-4,8,13,17-tetramethyl-20-oxoicosa-2,4,6,8,10,12,14,16,18-nonaenoic acid]
